# Assay: ESI-MS analysis of complex formation with copper salts
# Assay type: binding
# Experimental: Eight equivalents of M(NO3)2·xH2O or MSO4·xH2O (M=Cu, Zn) were reacted with 1 eq. of DPM-1001 (1 mM in H2O). The reaction solutions were stirred at RT, 40° C. and 80° C. for 2 h. Mass spectra were recorded on a Bruker Esquire 6000 HCT quadrupole ion trap instrument (Bruker Daltonik GmbH, Leipzig, Germany), equipped with an electrospray ionization (ESI) source. Generation of the molecular formula of the DPM-1001/Cu(II) species and the comparison between the theoretical (simulated) and the measured isotopic patterns was performed using the DataAnalysis 4.0 software (Bruker).
# Eight equivalents of M(NO3)2·xH2O or MSO4·xH2O were reacted with 1 eq. of DPM-1001, DPM-1003 or analog 2 (1 mM in H2O). The reaction solutions were stirred at RT, 40° C. and 80° C. for 2 h. Each sample was diluted 5-fold in 50% methanol, 0.1% formic acid and loaded into a 500 μL syringe. A Thermo Vantage triple quadrupole mass spectrometer (Thermo Scientific), equipped with an HESI spray source was coupled to an Accela HPLC system (Thermo Scientific). Mobile phase A consisted of 0.1% formic acid and mobile phase B consisted of 0.1% formic acid in methanol. Isocratic flow was set to 50% B at 200 μL/min. 200 μl samples were injected into the LC flow line via syringe pump at 10 μL/min and electrosprayed into the Vantage triple quadrupole mass spectrometer. A spray voltage of 4.3 kV was used along with a capillary temperature of 350° C. Each full MS scan was 0.5 s and data were collected with a scan range of 200 m/z to 900 m/z over 1 min.
# Binding of compounds of Formula I other than DPM-1001 was also confirmed. In an ESI-MS test, compound DPM-1013 as hydrochloride salt was dissolved in distilled water at a concentration of 2 mM freshly before testing. It was then mixed with an equal volume copper sulfate (16 mM) or copper chloride solution (16 mM) for 2 h, rendering a concentration of DPM-1013 at 1 mM and the copper salt 8 mM. The mixture was then further diluted 100-fold before injection into an ESI-MS, making a final concentration of DPM-1013 of 10 μM and Cu 80 μM in the test.
# Binding percentage=peak intensity of all DPM-1013-Cu complex/(peak intensity of all DPM-1013-Cu complex+peak intensity of free DPM-1013).
smiles,measurement,value
COC(=O)CCC(C)C1CCC2C3C(O)CC4CC(NCCCCNCc5ccccn5)CCC4(C)C3CCC12C (stereo not shown) [DPM-1001],complex formation with copper,Formed a Stable Complex with Copper(II)

# From patent US12178825B2, “Method and compositions for forming a copper-containing complex and uses thereof” (COLD SPRING HARBOR LABORATORY, priority 2017, dated 2024)
